The target of one test is Aβ fibrils (Homo sapiens (Human), UniProt P05067). Briefly: Homologous competition radioligand binding assay, Aβ fibrils. The conditions noted are these: 150 nM Aβ fibrils. As for the experimental part: Synthetic Aβ1-42 peptide (1 mg) (Bachem, Torrance, CA) was first dissolved in 50 μl DMSO. An additional 925 μl of mQ-H2O was added. Finally, 25 μl 1M Tris-HCl pH 7.6 was added to bring the final peptide concentration to 222 μM (1 mg/ml). The dissolved peptide was incubated for 30 h at 37° C. with shaking at 1000 rpm in an Eppendorf Thermomixer. Fibril formation was confirmed by ThioT fluorescence. To determine the concentration of fibrils, the fibril reaction mix was centrifuged at 15,000×g for 15 min to separate fibrils from monomer. The concentration of Aβ monomer in the supernatant was determined in a BCA protein assay using a BSA standard curve that contained DMSO at a percentage equivalent to the samples. […]
Chain of Aβ fibrils (P05067 672-713): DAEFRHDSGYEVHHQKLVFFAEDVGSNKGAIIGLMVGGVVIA
These direct binding assays used a fixed concentration of either fibrils or PD/AD tissue and the radioligand (e.g., [^18F]28) and varying concentration ranges of corresponding homologous non-radiolabeled standard reference compound. […] Reactions were incubated at 37° C. for 1 h before quantifying bound radioligand. […] Filters containing the bound ligand were mixed with 150 μL of Optiphase Supermix scintillation cocktail (PerkinElmer) and counted immediately. […] The dissociation constant (Kd) and the maximal number of binding sites (Bmax) values were determined by fitting the data to the equation. […]

Another test concerns the target Banner seeded fibrils (Homo sapiens (Human), UniProt P37840). Nature of the test: Saturation binding of [125I]TZ61-84 to Banner seeded fibrils. The conditions noted are these: 100 nM Banner seeded fibrils, saturation binding. On the procedure: The binding efficacy (Kd) of TZ-61-84 was determined using a modified protocol. Specifically, saturation plots of radiolabeled [^125I]TZ61-84 were obtained measuring total and nonspecific binding of TZ61-84 to 100 nM Banner seeded fibrils. The results are depicted in FIG. 15B-15D and that TZ61-84 has a high binding affinity to α-synuclein (Kd<1 nM).

Molecules are shown by their SMILES. Values joined by “and” are separate entries in the source; they are usually repeats but may differ in a detail not shown here. Equal entries are not always repeated.

The Kd is the equilibrium constant for the complex coming apart. For `COc1ccc2nc(-c3csc(C=O)c3)ccc2c1` [TZ55-81], the Kd at Aβ fibrils was 12 nM; on Banner seeded fibrils, 0.34 nM and 0.5 nM.

Source of the values: patent US12012394B2, “Alpha-synuclein ligands” (Washington University, priority 2018, dated 2024).
